pIC50: −log10 of the molar value. Bridge positions count the residues as written; N and C are the ends. Ends that are not written are not given here. Peptide text beside a SMILES is read from it.
Legend:
[1] = system: P. aeruginosa, E. coli and E. faecalis; assay type: cell-based
Procedure: (§1) A CFU assay of the antibacterial activity of the peptides of the present invention against Pseudomonas aeruginosa ATCC (American Type Culture Collection, Manassas, VA, USA) 27853, Enterococcus faecalis ATCC 29212 and Escherichia coli ATCC 25922 was performed as follows. The strains were grown in aerobic conditions in tryptic soy broth (Difco Laboratories, Detroit, MI, USA) at 37°C and incubated in the presence of hBDs for 2 h at 37°C. We used two concentrations of peptides, i.e., 2.5 µM and 12.5 µM. For salt-dependence assay, 0, 50, 100 and 200 mM NaCl were included in the incubation buffer as previously described (1). Each assay was performed in triplicate. Bactericidal activity (mean and SD of three assays) is expressed as the ratio between colonies counted and the number of colonies on a control plate. The minimal inhibitory concentration (MIC) of the peptide SEQ ID No. 25 was determined with a modified version of the microbroth dilution assay of the National Committee for Clinical Laboratory Standards using a final inoculum of 10^5 CFU/ml. The following peptide concentrations were used: 100.0, 50.0, 25.0, 12.5, 6.25, 3.12 and 1.56 µM.

[2] = system: Pseudomonas aeruginosa ATCC 27853; assay type: cell-based; conditions: 12.5 µM
Procedure: as §1

[3] = system: Enterococcus faecalis ATCC 29212; assay type: cell-based; conditions: 12.5 µM
Procedure: as §1

[4] = system: Escherichia coli ATCC 25922; assay type: cell-based; conditions: 12.5 µM
Procedure: as §1

HSV-1 [5] = conditions: reported elsewhere; cited from earlier work
HSV-1 [6] = experiment: Inhibition of HSV infectivity on Vero cell monolayers (co-exposure, virus pre-exposure, cell pre-exposure, post-exposure); assay type: cell-based
Procedure: Vero cells were grown in Dulbecco's modified Eagle's medium (DMEM) supplemented with 10% fetal calf serum. HSV-1 carrying a lacZ gene driven by the cytomegalovirus (CMV) IE-1 promoter to express beta-galactosidase was propagated as described elsewhere (Galdiero S, Falanga A, Vitiello M, D'Isanto M, Cantisani M, Kampanaraki A, Benedetti E, Browne H, Galdiero M. Peptides. 2008 Sep;29(9):1461-71). All experiments were conducted in parallel with no-peptide controls. […] Non-penetrated viruses were inactivated by citrate buffer at pH 3.0. Monolayers were fixed, stained with 5-bromo-4-chloro-3-indolyl-beta-D-galactopyranoside (X-gal) and plaque numbers were scored. Experiments were performed in triplicate and the percentage of inhibition was calculated with respect to no-peptide control experiments; ii) For "virus pre-exposure" experiments, […] monolayers; iii) For "cell pre-exposure" experiments, Vero cells were incubated with 20 µM of peptides for 30 min at 4°C and infected with serial dilutions of HSV-1 for 45 min at 37°C; and iv) For "post-exposure" experiments, Vero cell monolayers were incubated with virus for 45 minutes at 37°C and afterwards the peptide was added to the inoculum followed by an additional incubation period of 30 minutes at 37°C.
The antiviral activity was evaluated in co-exposure experiments (with cell, virus, and peptide at zero time), virus pre-exposure experiments (virus plus peptide before cell infection), cell pre-exposure experiments (cell plus peptide before virus infection) and post-treatment (cell plus virus before peptide addition) in order to evaluate in which phase, if any, the peptides could inhibit virus infectivity. […] Both in the co-exposure and virus pre-treatment experiments, the oxidized SEQ. […]

**Q.** For `CC[C@H](C)[C@@H]1NC(=O)[C@H](CCCCN)NC(=O)[C@H]([C@@H](C)O)NC(=O)[C@H](Cc2ccccc2)NC(=O)[C@H]([C@@H](C)CC)NC(=O)[C@@H]2CCCN2C(=O)[C@@H](N)CSSC[C@@H](C(=O)NCC(=O)NCC(=O)N[C@@H](CCCNC(=N)N)C(=O)N[C@@H](CCCNC(=N)N)C(=O)N[C@@H](CCCCN)C(=O)N[C@@H](CCCCN)C(N)=O)NC(=O)[C@H]([C@@H](C)O)NC(=O)CNC(=O)[C@H](CCC(N)=O)NC1=O` [SEQ ID No. 25] (H-CPIFTKIQGTCGGRRKK-NH2; disulfide 1-11), which MIC [1] is on record?
**A.** 12.5 to 25.0 µM

**Q.** What does the source list for “GIINTLQKYYCRVRGGRCAVLSCLPKEEQIGKCSTRGRKCCRRKK (disulfide 11-40, 18-33, 23-41 (inferred)) [hBD3]”?
**A.** antibacterial effect [2]: strong antibacterial effect; antibacterial effect [3]: strong antibacterial effect; antibacterial effect [4]: strong antibacterial effect; antiviral activity of oxidized versus reduced form (HSV-1 [5]): the same antiviral activity; Peptide inhibition (HSV-1 [6]; Cell Pre-treatment at 4°C, 1 uM): 53.5; Peptide inhibition (HSV-1 [6]; Cell Pre-treatment at 4°C, 5 uM): 41; Peptide inhibition (HSV-1 [6]; Cell Pre-treatment at 4°C, 10 uM): 27; Peptide inhibition (HSV-1 [6]; Cell Pre-treatment at 4°C, 20 uM): 22; Peptide inhibition (HSV-1 [6]; Cell Pre-treatment at 4°C, 50 uM): 18; Peptide inhibition (HSV-1 [6]; Cell Pre-treatment at 4°C, 150 uM): 1; Peptide inhibition (HSV-1 [6]; Cell Pre-treatment at 4°C, 1000 uM): 5; Peptide inhibition (HSV-1 [6]; Co-treatment at 37°C, 1 uM): 79; Peptide inhibition (HSV-1 [6]; Co-treatment at 37°C, 5 uM): 60; Peptide inhibition (HSV-1 [6]; Co-treatment at 37°C, 10 uM): 43; Peptide inhibition (HSV-1 [6]; Co-treatment at 37°C, 20 uM): 32; Peptide inhibition (HSV-1 [6]; Co-treatment at 37°C, 50 uM): 17.5; Peptide inhibition (HSV-1 [6]; Co-treatment at 37°C, 150 uM): 6.5; Peptide inhibition (HSV-1 [6]; Co-treatment at 37°C, 1000 uM): 9; Peptide inhibition (HSV-1 [6]; Virus Pre-treatment at 37°C, 1 uM): 64; Peptide inhibition (HSV-1 [6]; Virus Pre-treatment at 37°C, 5 uM): 52; Peptide inhibition (HSV-1 [6]; Virus Pre-treatment at 37°C, 10 uM): 33; Peptide inhibition (HSV-1 [6]; Virus Pre-treatment at 37°C, 20 uM): 31; Peptide inhibition (HSV-1 [6]; Virus Pre-treatment at 37°C, 50 uM): 20; Peptide inhibition (HSV-1 [6]; Virus Pre-treatment at 37°C, 150 uM): 8.5; Peptide inhibition (HSV-1 [6]; Virus Pre-treatment at 37°C, 1000 uM): 10; pIC50 (HSV-1 [6]; antiviral activity against HSV-1 on Vero cells): 5.00

**Q.** Which antibacterial effect [2] does the source give for “hBD1: human β-defensin 1, wild-type reference peptide (DHYNCVSSGGQCLYSACPIFTKIQGTCYRGKAKCCK; ends and bridges not checked; cysteine pairing not given here; UniProt P60022 33-68, looked up)” here?
**A.** strong antibacterial effect

**Q.** And the antibacterial effect [3]?
**A.** strong antibacterial effect

**Q.** What about the antibacterial effect [4] of the same molecule?
**A.** strong antibacterial effect
